As usually defined, the MIC is the lowest concentration that inhibits growth of the organism. A low value points to greater potency.

Molecules are shown by their SMILES. A value given as a limit tells only on which side of the number the result lay.

The source of these data is ChEMBL document CHEMBL1143408 (Antimicrob Agents Chemother, 2007).

Series [1] has as its system Pseudomonas aeruginosa. Briefly: Antimicrobial activity against Pseudomonas aeruginosa isolated from cystic fibrosis patient sputum culture.
The nature of series [2]: Drug level in healthy human serum at 2000 mg/20 mins infusion. The series is classed as ADME, cell-free. The following applies: iv, read-out: Drug uptake.
Series [3] can be described thus: Drug level in human cystic fibrosis patient serum at 2000 mg/20 mins infusion. The series is classed as ADME, cell-free. The note with it: iv, read-out: Drug uptake.

Regarding `C[C@H]1[C@H](NC(=O)/C(=N\OC(C)(C)C(=O)O)c2csc(N)n2)C(=O)N1S(=O)(=O)O` [AZTREONAM], the MIC in series [1] is at most 8 ng/mL. Besides, the values for the concentration at 20 min in series [2] and in series [3] were 242 µg/mL and 228 µg/mL, respectively.
